# Results reported in patent US20100317647A1 (priority 2009, published 2010).
# Target: human Cat S (Homo sapiens, UniProt P25774)
# Experiment: Cathepsin enzyme inhibition assay (fluorogenic peptide substrate cleavage)
# Type: biochemical
# Details: human Cat S 1 nM; substrate Z-Val-Val-Arg-AMC 20 μM; pH 6.5; fluorescence over 20 minutes
# Summary of the method: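 Fluorogenic cleavage of Z-Val-Val-Arg-AMC (20 μM) by 1 nM enzyme in 100 mM potassium phosphate pH 6.5, 5 mM EDTA, 5 mM DTT, 0.001% Triton X-100. Reaction started with substrate; fluorescence (ex 360/em 465 nm) followed over 20 minutes. IC50 by standard methods.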
# Chain of human Cat S (P25774 115-331): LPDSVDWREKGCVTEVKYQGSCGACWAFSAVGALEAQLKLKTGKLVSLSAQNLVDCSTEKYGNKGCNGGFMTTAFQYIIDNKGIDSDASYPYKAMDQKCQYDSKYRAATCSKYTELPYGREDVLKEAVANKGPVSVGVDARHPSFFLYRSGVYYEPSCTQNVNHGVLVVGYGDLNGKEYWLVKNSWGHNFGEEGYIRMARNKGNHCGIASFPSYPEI
row,SMILES,IC50 [nM]
1,"CO[C@@H]1C[C@H](S(=O)(=O)c2ccc(-c3cnn(CC(N)=O)c3)cc2C(F)(F)F)C[C@H]1C(=O)NC1(C#N)CC1 (racemic) [Example 194, (1R,2R,4R) and (1S,2S,4S)-4-[4-(1-Carbamoylmethyl-1H-pyrazol-4-yl)-2-trifluoromethyl-benzenesulfonyl]-2-methoxy-cyclopentanecarboxylic acid (1-cyano-cyclopropyl)-amide]",0.713
2,"N#CC1(NC(=O)[C@@H]2C[C@@H](S(=O)(=O)c3ccc(Br)cc3C(F)(F)F)C[C@H]2OC2CCCC2)CC1 (racemic) [Example 195, (1R,2R,4R) and (1S,2S,4S)-4-(4-Bromo-2-trifluoromethyl-benzenesulfonyl)-2-cyclopentyloxy-cyclopentanecarboxylic acid (1-cyano-cyclopropyl)-amide]",0.917
3,"CO[C@@H]1C[C@H](S(=O)(=O)c2ccc(N3CC(F)(F)C3)cc2C(F)(F)F)C[C@H]1C(=O)NC1(C#N)CC1 (racemic) [Example 206, (1R,2R,4R) and (1S,2S,4S)-4-[4-(3,3-Difluoro-azetidin-1-yl)-2-trifluoromethyl-benzenesulfonyl]-2-methoxy-cyclopentanecarboxylic acid (1-cyano-cyclopropyl)-amide]",1.4
4,"CO[C@@H]1C[C@H](S(=O)(=O)c2ccc(N3CCC(O)CC3)cc2C(F)(F)F)C[C@H]1C(=O)NC1(C#N)CC1 (racemic) [Example 207, (1R,2R,4R) and (1S,2S,4S)-4-[4-(4-Hydroxy-piperidin-1-yl)-2-trifluoromethyl-benzenesulfonyl]-2-methoxy-cyclopentanecarboxylic acid (1-cyano-cyclopropyl)-amide]",0.895
5,"Cc1cc(-c2ccc(S(=O)(=O)[C@H]3C[C@@H](OC4CCC4)[C@H](C(=O)NC4(C#N)CC4)C3)c(C(F)(F)F)c2)ccn1 (racemic) [Example 210, (1R,2R,4R) and (1S,2S,4S)-2-Cyclobutoxy-4-[4-(2-methyl-pyridin-4-yl)-2-trifluoromethyl-benzenesulfonyl]-cyclopentanecarboxylic acid (1-cyano-cyclopropyl)-amide]",0.21
6,"Cn1cc(-c2ccc(S(=O)(=O)[C@H]3C[C@@H](OC4CCC4)[C@H](C(=O)NC4(C#N)CC4)C3)c(C(F)(F)F)c2)cn1 (racemic) [Example 211, (1R,2R,4R) and (1S,2S,4S)-2-Cyclobutoxy-4-[4-(1-methyl-1H-pyrazol-4-yl)-2-trifluoromethyl-benzenesulfonyl]-cyclopentanecarboxylic acid (1-cyano-cyclopropyl)-amide]",0.255
7,"Cn1cc(-c2ccc(S(=O)(=O)[C@H]3C[C@@H](OC4CCCC4)[C@H](C(=O)NC4(C#N)CC4)C3)c(C(F)(F)F)c2)cn1 (racemic) [Example 213, (1R,2R,4R) and (1S,2S,4S)-2-Cyclopentyloxy-4-[4-(1-methyl-1H-pyrazol-4-yl)-2-trifluoromethyl-benzenesulfonyl]-cyclopentanecarboxylic acid (1-cyano-cyclopropyl)-amide]",0.16
8,"CO[C@@H]1C[C@H](S(=O)(=O)c2ccc(-c3cnn(CC4(C)COC4)c3)cc2C(F)(F)F)C[C@H]1C(=O)NC1(C#N)CC1 (racemic) [Example 214, (1R,2R,4R) and (1S,2S,4S)-2-Methoxy-4-{4-[1-(3-methyl-oxetan-3-ylmethyl)-1H-pyrazol-4-yl]-2-trifluoromethyl-benzenesulfonyl}-cyclopentanecarboxylic acid (1-cyano-cyclopropyl)-amide]",2.85
9,"CNC(=O)Cn1cc(-c2ccc(S(=O)(=O)[C@H]3C[C@@H](OC)[C@H](C(=O)NC4(C#N)CC4)C3)c(C(F)(F)F)c2)cn1 (racemic) [Example 216, (1R,2R,4R) and (1S,2S,4S)-2-Methoxy-4-[4-(1-methylcarbamoylmethyl-1H-pyrazol-4-yl)-2-trifluoromethyl-benzenesulfonyl]-cyclopentanecarboxylic acid (1-cyano-cyclopropyl)-amide]",1.6
10,"CO[C@@H]1C[C@H](S(=O)(=O)c2ccc(N3CCN(C(C)=O)CC3)cc2C(F)(F)F)C[C@H]1C(=O)NC1(C#N)CC1 (racemic) [Example 217, (1R,2R,4R) and (1S,2S,4S)-4-[4-(4-Acetyl-piperazin-1-yl)-2-trifluoromethyl-benzenesulfonyl]-2-methoxy-cyclopentanecarboxylic acid (1-cyano-cyclopropyl)-amide]",1.03
11,"CO[C@@H]1C[C@H](S(=O)(=O)c2ccc(-c3cnn(CC(=O)N(C)C)c3)cc2C(F)(F)F)C[C@H]1C(=O)NC1(C#N)CC1 (racemic) [Example 218, (1R,2R,4R) and (1S,2S,4S)-4-[4-(1-Dimethylcarbamoylmethyl-1H-pyrazol-4-yl)-2-trifluoromethyl-benzenesulfonyl]-2-methoxy-cyclopentanecarboxylic acid (1-cyano-cyclopropyl)-amide]",0.92
12,"N#CC1(NC(=O)[C@@H]2C[C@@H](S(=O)(=O)c3ccccc3C(F)(F)F)C[C@H]2OC2CCS(=O)(=O)CC2)CC1 (racemic) [Example 219, (1R,2R,4R) and (1S,2S,4S)-2-[(tetrahydro-1,1-dioxo-2H-thiopyran-4-yl)oxy]-4-(2-trifluoromethyl-benzenesulfonyl)-cyclopentanecarboxylic acid (1-cyano-cyclopropyl)-amide]",6.77
13,"N#CC1(NC(=O)[C@@H]2C[C@@H](S(=O)(=O)c3ccccc3C(F)(F)F)C[C@H]2OC2CCC2)CC1 (racemic) [Example 220, (1R,2R,4R) and (1S,2S,4S)-2-Cyclobutoxy-4-(2-trifluoromethyl-benzenesulfonyl)-cyclopentanecarboxylic acid (1-cyano-cyclopropyl)-amide]",3.6
14,"N#CC1(NC(=O)[C@@H]2C[C@@H](S(=O)(=O)c3ccccc3C(F)(F)F)C[C@H]2OCc2ccc(Cl)cc2)CC1 (racemic) [Example 232, (1R,2R,4R) and (1S,2S,4S)-2-(4-Chloro-benzyloxy)-4-(2-trifluoromethyl-benzenesulfonyl)-cyclopentanecarboxylic acid (1-cyano-cyclopropyl)-amide]",1.85

# Other lines, results leading:
row,IC50 [nM],SMILES
1,0.215,"Cc1cc(-c2ccc(S(=O)(=O)[C@H]3C[C@@H](OC4CCCC4)[C@H](C(=O)NC4(C#N)CC4)C3)c(C(F)(F)F)c2)ccn1 (racemic) [Example 212, (1R,2R,4R) and (1S,2S,4S)-2-Cyclopentyloxy-4-[4-(2-methyl-pyridin-4-yl)-2-trifluoromethyl-benzenesulfonyl]-cyclopentanecarboxylic acid (1-cyano-cyclopropyl)-amide]"
2,6.6,"CO[C@@H]1C[C@H](S(=O)(=O)c2ccc(N3CCN(C4CC4)CC3)cc2C(F)(F)F)C[C@H]1C(=O)NC1(C#N)CC1 (racemic) [Example 215, (1R,2R,4R) and (1S,2S,4S)-4-[4-(4-Cyclopropyl-piperazin-1-yl)-2-trifluoromethyl-benzenesulfonyl]-2-methoxy-cyclopentanecarboxylic acid (1-cyano-cyclopropyl)-amide]"
3,8.35,"N#CC1(NC(=O)[C@@H]2C[C@@H](S(=O)(=O)c3ccccc3C(F)(F)F)C[C@H]2OC2CCCC2)CC1 (racemic) [Example 221, (1R,2R,4R) and (1S,2S,4S)-2-Cyclopentyloxy-4-(2-trifluoromethyl-benzenesulfonyl)-cyclopentanecarboxylic acid (1-cyano-cyclopropyl)-amide]"
4,5.8,"N#CC1(NC(=O)[C@@H]2C[C@@H](S(=O)(=O)c3ccccc3Cl)C[C@H]2OCc2ccc(Cl)cc2)CC1 (racemic) [Example 222, (1R,2R,4R) and (1S,2S,4S)-4-(2-Chloro-benzenesulfonyl)-2-(4-chloro-benzyloxy)-cyclopentanecarboxylic acid (1-cyano-cyclopropyl)-amide]"
5,0.31,"CCNC(=O)Cn1cc(-c2ccc(S(=O)(=O)[C@H]3C[C@@H](OC)[C@H](C(=O)NC4(C#N)CC4)C3)c(C(F)(F)F)c2)cn1 (racemic) [Example 223, (1R,2R,4R) and (1S,2S,4S)-4-[4-(1-Ethylcarbamoylmethyl-1H-pyrazol-4-yl)-2-trifluoromethyl-benzenesulfonyl]-2-methoxy-cyclopentanecarboxylic acid (1-cyano-cyclopropyl)-amide]"
6,0.007,"CC(C)N1CCN(c2ccc(S(=O)(=O)[C@H]3C[C@@H](OC4CCCC4)[C@H](C(=O)NC4(C#N)CC4)C3)c(C(F)(F)F)c2)CC1 (racemic) [Example 229, (1R,2R,4R) and (1S,2S,4S)-2-Cyclopentyloxy-4-[4-(4-isopropyl-piperazin-1-yl)-2-trifluoromethyl-benzenesulfonyl]-cyclopentanecarboxylic acid (1-cyano-cyclopropyl)-amide]"
7,0.0275,"N#CC1(NC(=O)[C@@H]2C[C@@H](S(=O)(=O)c3ccc(N4CCN(CC(F)(F)F)CC4)cc3C(F)(F)F)C[C@H]2OC2CCCC2)CC1 (racemic) [Example 230, (1R,2R,4R) and (1S,2S,4S)-2-Cyclopentyloxy-4-{4-[4-(2,2,2-trifluoro-ethyl)-piperazin-1-yl]-2-trifluoromethyl-benzenesulfonyl}-cyclopentanecarboxylic acid (1-cyano-cyclopropyl)-amide]"
8,1.25,"N#CC1(NC(=O)[C@@H]2C[C@@H](S(=O)(=O)c3ccccc3C(F)(F)F)C[C@H]2Oc2ccccc2)CC1 (racemic) [Example 231, (1R,2R,4R) and (1S,2S,4S)-2-Phenoxy-4-(2-trifluoromethyl-benzenesulfonyl)-cyclopentanecarboxylic acid (1-cyano-cyclopropyl)-amide]"
9,10.5,"N#CC1(NC(=O)[C@@H]2C[C@@H](S(=O)(=O)c3ccc(Cl)cc3Cl)C[C@H]2OCc2ccc(Cl)cc2)CC1 (racemic) [Example 233, (1R,2R,4R) and (1S,2S,4S)-2-(4-Chloro-benzyloxy)-4-(2,4-dichloro-benzenesulfonyl)-cyclopentanecarboxylic acid (1-cyano-cyclopropyl)-amide]"
